The results in this text go back to publication PMC6297231 (Nature Communications, 2018).

In one assay the test system is MV411. In words: Caspase-3/7 activation assay. The class given is cell-based. The note with it: Homo sapiens, MV4-11.
The target of assay [1] is T1, Mcl-1 (Homo sapiens, UniProt Q07820). Nature of the assay: TR-FRET binding assay. Further details: N-terminal GST-tagged-Mcl-1 protein from Mcl-1 (E171-G327); made in house; host or cells: E. coli. Here is the method:
Percent inhibition was calculated based upon min (control compound) vs. max (DMSO) according to Eq. (2) and the IC50 was derived the smart fit curve (Genedata screener) of % inhibition vs. concentration. Ki values were calculated from Eq.
Target sequence in this assay (Q07820 171-327): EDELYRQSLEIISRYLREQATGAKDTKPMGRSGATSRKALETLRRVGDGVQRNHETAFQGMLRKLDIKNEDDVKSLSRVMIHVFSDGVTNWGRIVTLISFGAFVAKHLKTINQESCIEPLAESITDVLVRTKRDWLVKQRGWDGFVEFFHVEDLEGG
On the technique in general: In TR-FRET formats the signal depends on donor and acceptor labels being close together.

Assay [2] addresses T1, Mcl-1. In words: 2D protein-observed NMR titration (TROSY). It is filed as binding. Further details: The 6His-TEV-Mcl-1(162–326) construct in a pET vector was expressed in BL21-GOLD cells; 6His-TEV (N, cleaved yes); made in house; host or cells: E. coli BL21-GOLD. As for the experimental part:
The 6His-TEV-Mcl-1(162–326) construct in a pET vector was expressed in BL21-GOLD cells and inducted by IPTG. ^15N-labeled GS-Mcl-1 was obtained by growing cells in Isogro-15N (Sigma-Aldrich) media (5 g L^-1) containing 50 µg mL^-1 Kanamycin and 12.5 µg mL^-1 Tetracycline. Expression was induced at OD^600 = 0.8 with 0.1 mM IPTG. Cells were then incubated overnight at 30 °C, harvested by centrifugation and lysed by sonication in buffer H (40 mM Hepes pH 8.0, 300 mM NaCl, 10 mM imidazole, 1 mM TCEP), supplemented with 0.3 mg mL^-1 lysozyme, 2.5 U mL^-1 benzonase, and EDTA-free protease inhibitors (Roche). The sample was centrifuged and supernatant collected and incubated with Ni-NTA resin (60 min at 4 °C). […]
NMR spectra were recorded at 298 K on a Bruker Avance 600 MHz spectrometer running Topspin 2.3 equipped with a 5 mm TCI Cryoprobe with Z-axis gradients. […] Binding was detected by ^1H–^15N 2D Transverse relaxation optimized spectroscopy (TROSY) spectra of the protein (F2 × F1) 2048 × 50 complex pairs (in Echo-Antiecho mode), 12019 × 1800 Hz sweep width, 85.2 ms × 27.8 ms acquisition times. Compound titration was recorded from fresh compound stock in DMSO-d6, and spectra were recorded at ligand concentrations of 0.04, 0.08, 0.16, 0.32, 0.63, and 1.24 mM. […]
Target sequence in this assay (Q07820 162-326): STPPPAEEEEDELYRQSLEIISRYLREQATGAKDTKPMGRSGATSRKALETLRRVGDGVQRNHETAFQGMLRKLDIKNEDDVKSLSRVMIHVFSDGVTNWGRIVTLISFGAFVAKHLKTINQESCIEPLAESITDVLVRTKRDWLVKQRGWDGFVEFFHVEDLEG

Another assay concerns H23. Nature of the assay: Caspase-3/7 activation assay. The class given is cell-based. The note with it: Homo sapiens, NCI-H23.
The test system of the next assay is MOLP8. In words: Caspase-3/7 activation assay. It is filed as cell-based. The note with it: Homo sapiens, MOLP-8.
In assay [3] the target is T1, Mcl-1. Nature of the assay: SPR direct binding assay. Set-up: 6His-tagged Mcl-1 protein (E171-G327) was immobilized using NTA capture-coupling.
Target sequence in this assay (Q07820 171-327): as the sequence (Q07820 171-327) above
Method: A Biacore T200 instrument (GE Healthcare) was used to monitor binding interactions using a direct binding assay format. 6His-tagged Mcl-1 protein (E171-G327) was immobilized using NTA capture-coupling at a flow rate of 10 μL min^-1 and using an immobilization running buffer containing 10 mM HEPES, 300 mM NaCl, 1 mM TCEP, and 0.05% Tween-20 at 25 °C. […] Approximately 300 response units of Mcl-1 protein (2 μg mL^-1 in immobilization running buffer) were immobilized using the ‘aim for’ function in the T200 Control Software (GE Healthcare). Remaining reactive esters were blocked using a 7 min injection of 1 M ethanolamine. Reference flow cells were prepared without protein. All binding measurements were performed in 10 mM Tris, pH 7.5, 300 mM NaCl, 1 mM TCEP, 1% DMSO, and 0.02% Tween-20 at 25 °C at a flow rate of 30 μL min^-1. Buffer was primed through the instrument overnight to stabilize the surface before subsequent assay steps. Prior to kinetic analysis, solvent calibration and double referencing subtractions were made to eliminate bulk refractive index changes, injection noise, and data drift. Affinity and binding kinetic parameters were determined by global fitting to a 1:1-binding model within the Biacore T200 Evaluation Software (GE Healthcare).
Assay [4] has as its target T2, N-terminal GST-tagged Bcl-xL protein from Bcl-xL (1-209) (UniProt Q07817-1 1-209).
T2 construct: Bcl-xL, residues 1-209; also called GST-Bcl-xl; not shown: GST, N-terminal, kept
In words: AlphaScreen or HTRF; TR-FRET: GST-tagged protein with Eu-labeled anti-GST antibody and HyLite Fluor 647-labeled peptide; 384-well plates, 24 °C, 120-180 min; how the peptide Kd was determined is not told. The note with it: both partners purified. On the technique in general: Alpha assays give light when donor and acceptor beads are brought close together.

In assay [5] the target is T3, N-terminal GST-tagged-Mcl-1 protein from Mcl-1 (E171-G327) (human, UniProt Q07820 171-327).
T3 construct: Mcl-1, residues E171-G327; also called GST-Mcl-1; not shown: GST, N-terminal, kept
The assay is described as above. Conditions: both partners purified.

Assay [6] deals with T4, N-Terminal 6His-tagged Bfl-1 protein from Bfl-1 (M1-K151) (UniProt Q16548 1-151).
T4 construct: Bfl-1 (Bfl-1/A1), residues M1-K151; also called His-Bfl-1; source: E. coli, purified (Ni-NTA resin, size-exclusion chromatography); not shown: 6His, N-terminal, kept
T4 sequence (looked up): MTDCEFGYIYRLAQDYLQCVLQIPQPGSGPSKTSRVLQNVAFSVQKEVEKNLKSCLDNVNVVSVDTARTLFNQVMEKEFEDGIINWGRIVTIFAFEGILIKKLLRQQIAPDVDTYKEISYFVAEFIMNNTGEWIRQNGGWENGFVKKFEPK
In words: AlphaScreen or HTRF; TR-FRET: His-tagged protein with Eu-labeled anti-His antibody and HyLite Fluor 647-labeled peptide; 384-well plates, 24 °C, 120-180 min; how the peptide Kd was determined is not told. Conditions: both partners purified.

Like-named read-outs stand apart in the source and are kept apart here. Where no end group is shown, it is not given here.

T3 sequence (Q07820 171-327): as the sequence (Q07820 171-327) above
T2 sequence (Q07817 1-209): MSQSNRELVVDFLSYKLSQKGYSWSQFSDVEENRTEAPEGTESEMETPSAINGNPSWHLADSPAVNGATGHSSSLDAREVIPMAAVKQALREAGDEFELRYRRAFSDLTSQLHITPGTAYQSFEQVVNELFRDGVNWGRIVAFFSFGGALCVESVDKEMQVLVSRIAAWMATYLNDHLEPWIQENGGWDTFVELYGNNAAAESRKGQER
Method for H23: (§1) Cells were plated at 3000 cells/well in 384-well white plates in corresponding cell growth media. […] Caspase-3/7 activation was subsequently determined using a Caspase-Glo 3/7 Reagent (Promega) and viability was assayed using the CellTiter-Glo Reagent (Promega) as described in manufacturer’s instructions. Dose–response curves for caspase-3/7 activation and viability were plotted and analyzed (including EC50 and GI50 determination) using GraphPad Prism.
Method for MOLP8: as §1
Method for MV411: as §1

On to `Cc1nn(C)c(C)c1-c1cccc2c(CCCOc3cccc4ccccc34)c(C(=O)O)[nH]c12` [Compound 2, reference compound], for which the EC50 is greater than 31500 nM in the assay on MV411 (caspase activation, Mcl-1-dependent cell line, read-out: MV4-11, EC50); greater than 31600 nM with MV411 (mean of log transformed data, read-out: MV4-11 caspase pEC50 (converted)); greater than 31500 nM with H23 (caspase activation, Mcl-1-dependent cell line, read-out: NCI-H23, EC50); greater than 31600 nM with H23 (mean of log transformed data, read-out: NCI-H23 caspase pEC50 (converted)); greater than 31500 nM in the assay on MOLP8 (caspase activation, Mcl-1-dependent cell line, read-out: MOLP-8, EC50); greater than 31600 nM in the assay on MOLP8 (mean of log transformed data, read-out: MOLP-8 caspase pEC50 (converted)). For the same molecule, the IC50 was 288 nM on Mcl-1 [1] (mean of log transformed data, read-out: MCL1 FRET pIC50 (converted)) and 290 nM on Mcl-1 [1] (read-out: Mcl-1 FRET, IC50). The Kd is 141000 ± 8000 nM at Mcl-1 [2] (fast exchange shifts, second weaker binding event, read-out: Kd, binding event 2); less than 5000 nM at Mcl-1 [2] (slow exchange binding, read-out: Kd, binding event 1); 646 nM on Mcl-1 [3] (mean of log transformed data, read-out: MCL1 SPR pKd (converted)); 650 nM at Mcl-1 [3] (read-out: Mcl-1 SPR, Kd).

B1: HyLite Fluor 647-labeled BAK peptide C(Hilyte647 C2 Maleimide)-GGGQVGRQLAIIGDDINR (peptide)
peptide: C(HiLyte Fluor 647 C2 maleimide)GGGQVGRQLAIIGDDINR
notes: added N-terminal cysteine that carries the dye, and glycine spacer; Bak BH3 stretch; also called Hylite Bak peptide
With B1, the Kd in [4] is 10 nM.

B2: HyLite Fluor 647-labeled Bim peptide C (Hilyte647 C2 Maleimide)-WIAQELRRIGDEFN (peptide)
peptide: C(HiLyte Fluor 647 C2 maleimide)WIAQELRRIGDEFN
notes: added N-terminal cysteine that carries the dye; Bim BH3 stretch; also called Hylite Bim peptide
In the case of B2, the results for the Kd in assay [5] and in [6] were 1.5 nM and 10 nM, respectively.
